For the assay, the target named is rat MCH-1 (Rattus norvegicus, UniProt P97639). The experiment in a line: Radioligand binding assay at cloned rat MCH1 receptor ([3H] Compound A). Also on record: host or cells: Peak rapid 293 (Peakr293) cells, transient calcium phosphate transfection, membranes.
Setting [1] is: cloned rat MCH1 receptor, membranes from Peakr293 cells, 0.08 nM [3H] Compound A, read-out: Ki (nM) rMCH1.
The mark [2] stands for this setting: cloned rat MCH1 receptor, 0.08 nM [3H] Compound A, Peakr293 cell membranes, read-out: Ki (nM) rMCH1.

Read-outs that look alike come from different tables or passages of the source.

For orientation: Ki means the dissociation constant of the complex between target and ligand, obtained from inhibition or displacement.

Chain of rat MCH-1 (P97639 whole entry): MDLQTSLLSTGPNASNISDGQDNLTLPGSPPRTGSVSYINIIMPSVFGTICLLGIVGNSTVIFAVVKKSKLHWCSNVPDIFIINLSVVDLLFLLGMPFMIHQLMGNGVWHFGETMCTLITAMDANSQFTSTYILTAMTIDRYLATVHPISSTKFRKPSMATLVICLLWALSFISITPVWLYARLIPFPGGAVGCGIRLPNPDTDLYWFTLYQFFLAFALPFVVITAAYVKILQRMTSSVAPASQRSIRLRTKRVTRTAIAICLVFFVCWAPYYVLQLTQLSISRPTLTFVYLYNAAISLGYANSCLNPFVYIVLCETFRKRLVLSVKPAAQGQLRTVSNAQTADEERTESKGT

As for `CC(C)C(=O)Nc1cccc(C2CCN(Cc3cccc(N(C)C)c3)CC2)c1` [Example 211], the inhibition constant Ki under setting [1] stood at 111 nM.
Regarding `Cc1onc(-c2ccccc2)c1C(=O)OCCCCN1CCC(c2cccc(NC(=O)C(C)C)c2)CC1` [Example 296, 4-{4-[3-(ISOBUTYRYLAMINO)PHENYL]-1-PIPERIDINYL}BUTYL 5-METHYL-3-PHENYL-4-ISOXAZOLECARBOXYLATE], under setting [1], the Ki was determined as 20 nM.
Consider `CC(C)C(=O)Nc1cccc(C2CCN(Cc3cccc4ccn(-c5cccnc5)c34)CC2)c1` [Example 867], for which, under setting [2], the inhibition constant (Ki) worked out at 892 nM.
Turning to `CCC(=O)Nc1cccc(C2CCN(CCCCC(=O)c3ccccc3F)CC2)c1` [Example 554], the inhibition constant (Ki) under setting [2] was determined as 70.9 nM.
On the same count and under the same terms, then `CC(C)C(=O)Nc1cccc(C2CCN(CCCCC(O)c3ccc(C(F)(F)F)cc3)CC2)c1` (stereo not drawn) [Example 810], with 191 nM; and `CC(C)C(=O)Nc1cccc(C2CCN(CCCNS(=O)(=O)c3ccc(Cl)c([N+](=O)[O-])c3)CC2)c1` [Example 640], with 11.2 nM; and `CC(C)C(=O)Nc1cccc(C2CCN(CCCc3c(-c4cccc(F)c4)[nH]c4c3ccc3ccccc34)CC2)c1` [Example 699], with 5.4 nM.
Still for that read-out and setting: then `CC(C)C(=O)Nc1cccc(C2CCN(Cc3cccc4c3ccn4-c3cc(Cl)cc(Cl)c3)CC2)c1` [Example 863], with 269 nM.
As for `CC(C)C(=O)Nc1cccc(C2CCN(Cc3cccc(Oc4ccc(Cl)cc4)c3)CC2)c1` [Example 210], the Ki under setting [1] came to 23.3 nM.
On to `CC1=C(C(=O)NCCCN2CCC(c3cccc(NC(=O)C(C)C)c3)CC2)C(c2ccc(F)cc2F)CC(=O)N1` (stereo not drawn) [Example 796], for which the Ki under setting [2] turned out to be 43 nM.
With `CC(=O)c1cccc(OC(CCCCCN2CCC(c3cccc(NC(=O)C(C)C)c3)CC2)c2ccccc2F)c1` (stereo not drawn) [Example 888], the Ki under setting [2] worked out at 19.8 nM.
On the same count and under the same terms, then `CC(C)C(=O)Nc1cccc(C2CCN(CCCCCCNC(=O)Nc3ccc4ccccc4c3)CC2)c1` [Example 636], with 40.8 nM; and `CC(C)C(=O)Nc1cccc(C2CCN(Cc3c(-c4ccc(F)cc4)[nH]c4ccccc34)CC2)c1` [Example 432], with 198 nM.
Same read-out and setting: the same measure for `CC(C)C(=O)Nc1cccc(C2CCN(CCCc3c(-c4ccc(C(F)(F)F)cc4)[nH]c4c3ccc3ccccc34)CC2)c1` [Example 686, 2-METHYL-N-{3-[1-(3-(2-[4-(TRIFLUOROMETHYL)PHENYL]-1H-BENZO [G]INDOL-3-YL}PROPYL)-4-PIPERIDINYL]PHENYL}PROPANAMIDE]: 33.9 nM; for `CC(C)C(=O)Nc1cccc(C2CCN(Cc3cn(-c4cccc(Cl)c4)c4ccccc34)CC2)c1` [Example 458]: 15.3 nM; for `CC(C)C(=O)Nc1cccc(C2CCN(CCCCC(=O)c3ccc(I)cc3)CC2)c1` [Example 676]: 21.9 nM.
Regarding `CC(C)C(=O)Nc1cccc(C2CCN(CCC(Oc3ccc(F)cc3F)c3ccc(F)cc3)CC2)c1` (stereo not drawn) [Example 146], the inhibition constant Ki under setting [1] came to 19.2 nM.
Same read-out and setting: the same measure for `Cc1csc2sc(CN3CCC(c4cccc(NC(=O)C(C)C)c4)CC3)c(C)c12` [Example 215, N-(3-{1-[(3,4- DIMETHYLTHIENO[2,3-B]THIEN-2-YL)METHYL]-4-PIPERIDINYL}PHENYL)-2-METHYLPROPANAMIDE]: 283 nM.
With `CC(C)C(=O)Nc1cccc(C2CCN(CC[C@H](NC(=O)Nc3ccccc3[N+](=O)[O-])c3ccccc3)CC2)c1` [Example 610], the inhibition constant (Ki) under setting [2] was 530 nM.
On the same count and under the same terms, the same measure for `Cc1cccc2c(CCCN3CCC(c4cccc(NC(=O)C(C)C)c4)CC3)c[nH]c12` [Example 417]: 20.5 nM.
The same measure, in the same setting: the same measure for `CCC(=O)Nc1ccc(C2CCN(CCCCCCn3ccc4ccccc43)CC2)cc1` [Example 828]: 516 nM.
Same read-out and setting: then `CC(C)C(=O)Nc1cccc(C2CCN(CCCCCCNC(=O)Nc3ccccc3)CC2)c1` [Example 631], with 259 nM; and `CC(C)C(=O)Nc1cccc(C2CCN(CCCCNC(=O)Nc3ccc(-c4ccccc4)cc3)CC2)c1` [Example 660], with 129 nM.
In the case of `CC(C)C(=O)Nc1cccc(C2CCN(CC[C@H](NC(=O)c3ccc(Oc4cc(Cl)cc(Cl)c4)[nH]3)c3ccccc3)CC2)c1` [Example 318], the Ki under setting [1] was 251 nM.
On the same count and under the same terms, then `CC(C)C(=O)Nc1cccc(C2CCN(CCCOc3ccc(Br)cc3)CC2)c1` [Example 352], with 13.3 nM.
Regarding `CC(C)C(=O)Nc1cccc(C2CCN(CCCc3c(-c4ccc(Cl)cc4)[nH]c4ccc(OC(F)(F)F)cc34)CC2)c1` [Example 703], the Ki under setting [2] stood at 16.6 nM.
Take `CC(C)C(=O)Nc1cccc(C2CCN(CCC(O)c3ccc4c(c3)CCC4)CC2)c1` (stereo not drawn) [Example 163]: the inhibition constant Ki under setting [1] turned out to be 58.3 nM.
Still for that read-out and setting: then `CC(C)C(=O)Nc1cccc(C2CCN(CCC(Oc3ccc(Oc4ccccc4)cc3)c3ccc(Br)cc3)CC2)c1` (stereo not drawn) [Example 149], with 149 nM.
As for `CC(C)C(=O)Nc1cccc(C2CCN(CC[C@H](NS(=O)(=O)c3ccc(F)cc3)c3ccccc3)CC2)c1` [Example 598], the Ki under setting [2] stood at 25.3 nM.
On the same count and under the same terms, the same measure for `CC(C)C(=O)Nc1cccc(C2CCN(CCCc3c(-c4cccc(F)c4)[nH]c4ccc(OC(F)(F)F)cc34)CC2)c1` [Example 694]: 6.4 nM.
Take `COc1ccc(-n2ccc3cc(CN4CCC(c5cccc(NC(=O)C(C)C)c5)CC4)ccc32)cc1` [Example 100]: the Ki under setting [1] amounted to 27.5 nM.
`CCOc1ccccc1OC(CCCCN1CCC(c2cccc(NC(=O)C(C)C)c2)CC1)c1ccccc1` (stereo not drawn) [Example 939]: the inhibition constant (Ki) under setting [2] stood at 62 nM.
The same measure, in the same setting: then `Cc1ccc2[nH]c(-c3ccccc3)c(CN3CCC(c4cccc(NC(=O)C(C)C)c4)CC3)c2c1` [Example 437], with 552 nM.
As for `CC(C)C(=O)Nc1cccc(C2CCN(C[C@@H](C)COc3cccc(Cl)c3)CC2)c1` [Example 373], the Ki under setting [1] is 428 nM.
Still for that read-out and setting: then `CC(C)C(=O)Nc1cccc(C2CCN(C[C@@H](C)COc3ccc(F)cc3)CC2)c1` [Example 367], with 236 nM.
Take `Cc1ccc2c(CN3CCC(c4cccc(NC(=O)C(C)C)c4)CC3)cn(-c3ccccc3)c2c1` [Example 505]: the Ki under setting [2] came to 6.5 nM.
As to `CC(C)C(=O)Nc1cccc(C2CCN(Cc3cn(-c4ccccc4C(F)(F)F)c4ccccc34)CC2)c1` [Example 448], the Ki under setting [1] came out at 61 nM and the Ki under setting [2] was 61 nM.
Consider `Cc1noc(C)c1S(=O)(=O)NCCCN1CCC(c2cccc(NC(=O)C(C)C)c2)CC1` [Example 644], for which, under setting [2], the Ki was 196 nM.
Regarding `CC(=O)c1ccccc1OC(CCN1CCC(c2cccc(NC(=O)C(C)C)c2)CC1)c1ccc(Br)cc1` (stereo not drawn) [Example 153], the Ki under setting [1] amounted to 8.1 nM.
Consider `COc1ccc(OC(CCCCCN2CCC(c3cccc(NC(=O)C(C)C)c3)CC2)c2ccccc2F)cc1` (stereo not drawn) [Example 892], for which the inhibitory constant (Ki) under setting [2] stood at 17.3 nM.
Take `COc1ccc(OC(CCN2CCC(c3cccc(NC(=O)C(C)C)c3)CC2)c2ccc(F)cc2)cc1` (stereo not drawn) [Example 177]: the Ki under setting [1] was determined as 6.8 nM.
For the compound `COC(=O)c1sccc1S(=O)(=O)NCCCN1CCC(c2cccc(NC(=O)C(C)C)c2)CC1` [Example 603, METHYL 3-{[(3-{4-[3-(ISOBUTYRYLAMINO)PHENYL]-1-PIPERIDINYL}PROPYL)AMINO]SULFONYL}-2-THIOPHENECARBOXYLATE], under setting [2], the inhibition constant (Ki) was 287 nM.
Still for that read-out and setting: then `CC(C)C(=O)Nc1cccc(C2CCN(CCCNC(=O)Nc3ccc(F)cc3)CC2)c1` [Example 613], with 34.9 nM; and `CC(C)C(=O)Nc1cccc(C2CCN(CCCc3c(-c4ccc(I)cc4)n(C)c4ccccc34)CC2)c1` [Example 748], with 3.1 nM.
On to `Cc1onc(-c2ccccc2Cl)c1C(=O)NCCCN1CCC(c2cccc(NC(=O)C(C)C)c2)CC1` [Example 331], for which the inhibitory constant (Ki) under setting [1] came out at 51.3 nM.
Consider `CC(C)C(=O)Nc1cccc(C2CCN(CCCCC(Oc3ccc(Cl)cc3)c3ccc(Cl)cc3)CC2)c1` (stereo not drawn) [Example 920], for which the Ki under setting [2] turned out to be 6.9 nM.
Same read-out and setting: then `CC(C)C(=O)Nc1cccc(C2CCN(CC[C@H](NS(=O)(=O)c3cccc4c(N(C)C)cccc34)c3ccccc3)CC2)c1` [Example 594], with 67 nM.
Turning to `CCC(=O)Nc1cccc(C2CCN(CCCCC(=O)c3ccccc3C(F)(F)F)CC2)c1` [Example 559], the Ki under setting [2] was determined as 62.3 nM.
With `CC(C)C(=O)Nc1cccc(C2CCN(CCCc3c(-c4cccc(Cl)c4)[nH]c4c3ccc3ccccc34)CC2)c1` [Example 728], the Ki under setting [2] stood at 16.3 nM.
The same measure, in the same setting: then `CCC(=O)Nc1cccc(C2CCN(CCCCCSc3ccccc3)CC2)c1` [Example 589], with 66.6 nM; and `CC(C)C(=O)Nc1cccc(C2CCN(CCCc3c(-c4cccc([N+](=O)[O-])c4)[nH]c4ccccc34)CC2)c1` [Example 766], with 7.6 nM; and `CC(C)C(=O)Nc1cccc(C2CCN(CCCc3c(-c4ccccc4Br)[nH]c4ccc(OC(F)(F)F)cc34)CC2)c1` [Example 782], with 18.1 nM.
For `CCSc1ncccc1C(=O)N[C@@H](CCN1CCC(c2cccc(NC(=O)C(C)C)c2)CC1)c1ccccc1` [Example 307], the inhibition constant (Ki) under setting [1] was found to be 97.4 nM.
In the case of `CC(C)(C)c1ccc(C(=O)CCCN2CCC(c3cccc(NC(=O)C4CC4)c3)CC2)cc1` [Example 541], under setting [2], the inhibitory constant (Ki) is 319 nM.
Still for that read-out and setting: then `CC(C)C(=O)Nc1cccc(C2CCN(CCc3cn(C)c4ccccc34)CC2)c1` [Example 410], with 263 nM.
`CC(=O)c1ccccc1O[C@H](CN1CCC(c2cccc(NC(=O)C(C)C)c2)CC1)c1ccccc1` [Example 334]: the Ki under setting [1] came out at 603 nM.
For the compound `CC(C)C(=O)Nc1cccc(C2CCN(Cc3ccc(C(=O)c4ccccc4)cc3)CC2)c1` [Example 807], under setting [2], the inhibition constant Ki was found to be 2.7 nM.
Same read-out and setting: then `CC(C)C(=O)Nc1cccc(C2CCN(Cc3c[nH]c4c(-c5ccccc5F)cccc34)CC2)c1` [Example 516], with 90.9 nM; and `CC(C)C(=O)Nc1cccc(C2CCN(Cc3cn(-c4cccc(Cl)c4)c4cc(Cl)ccc34)CC2)c1` [Example 480], with 9 nM; and `O=C(CCCN1CCC(c2cccc(NC(=O)C3CC3)c2)CC1)c1ccc(Oc2ccccc2)cc1` [Example 539], with 268 nM.
The same measure, in the same setting: then `CC(C)C(=O)Nc1cccc(C2CCN(Cc3cccc4c3ccn4-c3ccccn3)CC2)c1` [Example 870], with 167 nM.
Regarding `CC(C)C(=O)Nc1cccc(C2CCN(Cc3cccc4[nH]ccc34)CC2)c1` [Example 830], the inhibitory constant (Ki) stood at 469 nM.

The values above are taken from patent US6727264B1 (Synaptic Pharmaceutical Corporation, priority 2001, dated 2004).
